Source: patent US20110053773A1, “METHODS OF IMPROVING NUTRITIONAL VALUE OF PLANTS” (UNIVERSITY OF TENNESSEE RESEARCH FOUNDATION, priority 2009, published 2011)

Columns and labels:
kale 'Red Russian' = experiment: Content analysis of kale: protein, amino acids, fiber, fatty acids, minerals (Example 4, Tables 12-14); format: in vivo; details: 28 DA-A, second-listed rate g ai/ha: chlropyrifos ###, chlorothalonil ###, paclobutrazol 9.7, mepiquat-chloride 37, + NIS 0.3 % v/v
How it was run: (§1)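 Greenhouse postemergence applications of chlorpyrifos, chlorothalonil, mepiquat-chloride, paclobutrazol, napthalic anhydride or isoxadifen-ethyl. Visual injury (phytotoxicity, chlorosis, stunting) scored 0–100%, 0 = no response, 100 = plant death. Harvest about 4 weeks after treatment; replicates pooled for protein, mineral, amino acid, fiber and fatty acid analysis.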

basil 'Genovese' [1] = experiment: Visual injury of basil after insecticide, fungicide, PGRs, safeners (Example 4)
How it was run: as §1

kale ‘Red Russian’ = experiment: Yield, fresh weight of kale after insecticide, fungicide and PGRs (Example 4, Table 12); format: in vivo; details: 28 DA-A, Untreated Check 106.9
How it was run: (§2)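 Plants received postemergence sprays of one insecticide, one fungicide, two PGRs or two safeners in the greenhouse. About 4 weeks later they were harvested, and replicates were pooled for laboratory content analysis. Injury was rated visually on a 0–100% scale.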

basil 'Genovese' [2] = experiment: Content analysis of basil: protein, minerals (Example 4, Tables 10-11); format: in vivo; details: 28 DA-A
How it was run: as §2

[3] = 7 DA-A, rates g ai/ha: chlropyrifos 1120, chlorothalonil 2630, paclobutrazol 3.23, mepiquat-chloride 12.3, Isoxadifen 8, Napthalic anhydride 264, + NIS 0.25 % v/v
[4] = 7 DA-A, rates g ai/ha: chlropyrifos 3370, chlorothalonil 7900, paclobutrazol 9.7, mepiquat-chloride 37, Isoxadifen 16, Napthalic anhydride 527, + NIS 0.25 % v/v
[5] = 14 DA-A, rates g ai/ha: chlropyrifos 1120, chlorothalonil 2630, paclobutrazol 3.23, mepiquat-chloride 12.3, Isoxadifen 8, Napthalic anhydride 264, + NIS 0.25 % v/v
[6] = 14 DA-A, rates g ai/ha: chlropyrifos 3370, chlorothalonil 7900, paclobutrazol 9.7, mepiquat-chloride 37, Isoxadifen 16, Napthalic anhydride 527, + NIS 0.25 % v/v
[7] = 28 DA-A, rates g ai/ha: chlropyrifos 1120, chlorothalonil 2630, paclobutrazol 3.23, mepiquat-chloride 12.3, Isoxadifen 8, Napthalic anhydride 264, + NIS 0.25 % v/v
[8] = 28 DA-A, rates g ai/ha: chlropyrifos 3370, chlorothalonil 7900, paclobutrazol 9.7, mepiquat-chloride 37, Isoxadifen 16, Napthalic anhydride 527, + NIS 0.25 % v/v
[9] = rates g ai/ha: chlroprifos 3370, chlorothalonil 7900, paclobutrazol 9.7, mepiquat-chloride 37, Isoxadifen 16, Napthalic anhydride 527, + NIS 0.25 % v/v
[10] = rates g ai/ha: chlropyrifos 1120, chlorothalonil 2630, paclobutrazol 3.23, mepiquat-chloride 12.3, Isoxadifen 8, Napthalic anhydride 264, + NIS 0.25 % v/v

## C[N+]1(C)CCCCC1 [mepiquat-chloride]
Kale 'Red Russian'
  Cysteine, Percent Increase over the Untreated Check (on a % dry matter basis): −6 % check
  Glutamic acid, Percent Increase over the Untreated Check (on a % dry matter basis): −2 % check
  Glycine, Percent Increase over the Untreated Check (on a % dry matter basis): −7 % check
  Iso-leucine, Percent Increase over the Untreated Check (on a % dry matter basis): −3 % check
  Leucine, Percent Increase over the Untreated Check (on a % dry matter basis): −4 % check
  Lysine, Percent Increase over the Untreated Check (on a % dry matter basis): −1 % check
  Methionine, Percent Increase over the Untreated Check (on a % dry matter basis): −4 % check
  Proline, Percent Increase over the Untreated Check (on a % dry matter basis): 2 % check
  Threonine, Percent Increase over the Untreated Check (on a % dry matter basis): −1 % check
  Total Amino acids, Percent Increase over the Untreated Check (on a % dry matter basis): −2 % check
  Total Protein, Percent Increase over the Untreated Check (on a % dry matter basis): 0 % check
  Valine, Percent Increase over the Untreated Check (on a % dry matter basis): −2 % check
Basil 'Genovese' [1]; [3]
  Phytotoxicity Chlorosis: 3%
  Phytotoxicity General: 2%
  Phytotoxicity Stunting: 3%
Basil 'Genovese' [1]; [4]
  Phytotoxicity Chlorosis: 5%
  Phytotoxicity General: 2%
  Phytotoxicity Stunting: 5%
Basil 'Genovese' [1]; [5]
  Phytotoxicity Chlorosis: 7%
  Phytotoxicity General: 5%
  Phytotoxicity Stunting: 3%
Basil 'Genovese' [1]; [6]
  Phytotoxicity Chlorosis: 2%
  Phytotoxicity General: 5%
  Phytotoxicity Stunting: 0%
Basil 'Genovese' [1]; [7]
  Phytotoxicity Chlorosis: 2%
  Phytotoxicity General: 2%
  Phytotoxicity Stunting: 2%
Basil 'Genovese' [1]; [8]
  Phytotoxicity Chlorosis: 2%
  Phytotoxicity General: 0%
  Phytotoxicity Stunting: 0%
Kale ‘Red Russian’; rates g ai/ha: chlropyrifos 1120, chlorothalonil 2630, paclobutrazol 3.23, mepiquat-chloride 12.3, + NIS 0.25 % v/v
  Yield Fresh weight: 101.8 grams
Kale ‘Red Russian’; rates g ai/ha: chlropyrifos 3370, chlorothalonil 7900, paclobutrazol 9.7, mepiquat-chloride 37, + NIS 0.25 % v/v
  Yield Fresh weight: 101.2 grams
Basil 'Genovese' [2]; [9]
  ADF, Percent Increase Over the Untreated Check (on a % dry matter basis): −9 % check
  Calcium, Percent Increase Over the Untreated Check (on a % dry matter basis): 2 % check
  Copper, Percent Increase Over the Untreated Check (on a % dry matter basis): −8 % check
  Iron, Percent Increase Over the Untreated Check (on a % dry matter basis): 6 % check
  Magnesium, Percent Increase Over the Untreated Check (on a % dry matter basis): 16 % check
  Manganese, Percent Increase Over the Untreated Check (on a % dry matter basis): 61 % check
  NDF, Percent Increase Over the Untreated Check (on a % dry matter basis): −11 % check
  Phosphorous, Percent Increase Over the Untreated Check (on a % dry matter basis): 26 % check
  Potassium, Percent Increase Over the Untreated Check (on a % dry matter basis): −3 % check
  Protein, Percent Increase Over the Untreated Check (on a % dry matter basis): 7 % check
  Sodium, Percent Increase Over the Untreated Check (on a % dry matter basis): 8 % check
  Soluble protein, Percent Increase Over the Untreated Check (on a % dry matter basis): 27 % check
  Zinc, Percent Increase Over the Untreated Check (on a % dry matter basis): 53 % check
Basil 'Genovese' [2]; [10]
  ADF, Percent Increase Over the Untreated Check (on a % dry matter basis): 7 % check
  Calcium, Percent Increase Over the Untreated Check (on a % dry matter basis): 2 % check
  Copper, Percent Increase Over the Untreated Check (on a % dry matter basis): 0 % check
  Iron, Percent Increase Over the Untreated Check (on a % dry matter basis): 14 % check
  Magnesium, Percent Increase Over the Untreated Check (on a % dry matter basis): 0 % check
  Manganese, Percent Increase Over the Untreated Check (on a % dry matter basis): 61 % check
  NDF, Percent Increase Over the Untreated Check (on a % dry matter basis): −8 % check
  Phosphorous, Percent Increase Over the Untreated Check (on a % dry matter basis): 13 % check
  Potassium, Percent Increase Over the Untreated Check (on a % dry matter basis): −4 % check
  Protein, Percent Increase Over the Untreated Check (on a % dry matter basis): 13 % check
  Sodium, Percent Increase Over the Untreated Check (on a % dry matter basis): −8 % check
  Soluble protein, Percent Increase Over the Untreated Check (on a % dry matter basis): 89 % check
  Zinc, Percent Increase Over the Untreated Check (on a % dry matter basis): 34 % check
